Test results as given in US20230190887A1, “TARGETING G3BP AGGREGATION TO PREVENT NEURODEGENERATION” (priority 2019, published 2023).

Tested on: axonal protein synthesis in DRG neurons
Assay: Puromycinylation assay of axonal protein synthesis
Type: cell-based, rat
Details: compared to untreated and 168-189 peptide-treated cultures
Experimental: Puromycinylation assay. To visualize newly synthesized proteins in cultured neurons, the inventors used the Click-iT® Plus OPP Protein Synthesis Assay Kit per manufacturer's instructions (Invitrogen/Life Technologies). Briefly, 3 DIV cultures were incubated with 20 μM0-propargyl-puromycin (OPP) for 30 min at 37° C. OPP labeled proteins were detected by crosslinking with Alexa Fluor-594 picolyl azide molecule. Coverslips were then mounted with Prolong Gold Antifade (Invitrogen) and imaged with Leica DMI6000 epifluorescent microscope as above. ImageJ was used to quantify the Puromycinylation signals in distal axons and cell bodies.

YGNKKNNNQNNN-VVEPEPEPEPEPEPEPVSE [G3BP1 190-208 peptide]
puromycin incorporation in DRG axons (axonal protein synthesis): significantly increased puromycin incorporation
puromycin incorporation in DRG axons (axonal protein synthesis) (listed as 190-208 peptide): significant increase in axonal protein synthesis
